pIC50: −log10 of the molar value.
Target: T1, Human plasma kallikrein (Homo sapiens, UniProt P03952)
T1 construct: yields a heavy chain (371 amino acids) and a light chain (248 amino acids); purchased Enzyme Research Laboratories
Assay: Kallikrein Assay (fluorogenic substrate hydrolysis, AFC release)
Assay type: biochemical
Settings: purified Human plasma kallikrein 0.5 nM; substrate Acetyl-K—P—R-AFC 100 mM; 50 mM HEPES pH 7.4
How it was run: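 Purified human plasma kallikrein (0.5 nM final) with Acetyl-K-P-R-AFC substrate (final ≤0.2 Km) in 50 mM HEPES pH 7.4, 150 mM NaCl, 5 mM CaCl2, 0.1% PEG 8000, after enzyme–inhibitor equilibration; room temperature or 37° C. AFC fluorescence (405 Ex/510 Em nm) under linear conditions; IC50 by four-parameter fit, Ki via Cheng-Prusoff.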

T1 sequence (P03952 391-638 limits assumed): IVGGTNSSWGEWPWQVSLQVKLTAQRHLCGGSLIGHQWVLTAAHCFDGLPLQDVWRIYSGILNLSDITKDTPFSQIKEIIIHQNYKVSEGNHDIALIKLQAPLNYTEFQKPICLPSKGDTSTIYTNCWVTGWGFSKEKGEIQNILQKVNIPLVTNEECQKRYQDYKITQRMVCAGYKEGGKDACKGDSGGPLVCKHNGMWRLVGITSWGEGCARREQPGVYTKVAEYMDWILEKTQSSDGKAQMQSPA
T1 sequence (P03952 20-390 partner limits assumed): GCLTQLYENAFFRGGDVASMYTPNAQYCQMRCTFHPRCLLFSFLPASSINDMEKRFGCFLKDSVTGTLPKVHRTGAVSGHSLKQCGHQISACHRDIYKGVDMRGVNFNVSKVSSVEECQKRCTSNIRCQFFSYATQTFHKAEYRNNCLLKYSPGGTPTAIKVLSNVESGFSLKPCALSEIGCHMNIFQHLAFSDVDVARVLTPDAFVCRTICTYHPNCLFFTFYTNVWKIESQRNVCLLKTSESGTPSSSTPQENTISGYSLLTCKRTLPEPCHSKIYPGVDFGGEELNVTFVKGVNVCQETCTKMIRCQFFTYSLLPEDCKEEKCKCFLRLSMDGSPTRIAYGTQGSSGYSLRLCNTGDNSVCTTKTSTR

| pIC50 | SMILES |
| --- | --- |
| 8.00 | Cc1cc(C(C)(C)n2cc(C(=O)N[C@H]3C[C@@H](c4cc(Cl)ccc4C#N)C3)nn2)cnc1N1C[C@H]2C[C@H]2C1=O [Example 61, N-((cis)-3-(5-chloro-2-cyanophenyl)cyclobutyl)-1-(2-(5-methyl-6-((1R,5S)-2-oxo-3-azabicyclo[3.1.0]hexan-3-yl)pyridin-3-yl)propan-2-yl)-1H-1,2,3-triazole-4-carboxamide] |
| 8.96 | COc1cc(N2C[C@H]3C[C@H]3C2=O)ncc1C(C)n1cc(C(=O)N[C@H]2C[C@@H](c3cc(Cl)ccc3C#N)C2)nn1 (single isomer, unassigned) [Example 89, N-((cis)-3-(5-chloro-2-cyanophenyl)cyclobutyl)-1-((S or R)-1-(4-methoxy-6-((1R,5S)-2-oxo-3-azabicyclo[3.1.0]hexan-3-yl)pyridin-3-yl)ethyl)-1H-1,2,3-triazole-4-carboxamide] |
| 7.40 | Cc1nc(N2C[C@H]3C[C@H]3C2=O)ncc1C(C)n1cc(C(=O)NC2CC(C)(c3cc(Cl)ccc3C#N)C2)nn1 (single isomer, unassigned) [Example 83, N-((cis)-3-(5-chloro-2-cyanophenyl)-3-methylcyclobutyl)-1-((S or R)-1-(4-methyl-2-((1R,5S)-2-oxo-3-azabicyclo[3.1.0]hexan-3-yl)pyrimidin-5-yl)ethyl)-1H-1,2,3-triazole-4-carboxamide] |
| 8.33 | Cc1cc(N2C[C@H]3C[C@H]3C2=O)nnc1C(C)n1cc(C(=O)N[C@H]2C[C@@H](c3cc(Cl)ccc3C#N)C2)cn1 (single isomer, unassigned) [Example 53, N-((cis)-3-(5-chloro-2-cyanophenyl)cyclobutyl)-1-((R or S)-1-(4-methyl-6-((1R,5S)-2-oxo-3-azabicyclo[3.1.0]hexan-3-yl)pyridazin-3-yl)ethyl)-1H-pyrazole-4-carboxamide] |
| 8.17 | COc1c(N2C[C@H]3C[C@H]3C2=O)ncc(C(C)n2cc(C(=O)N[C@H]3C[C@@H](c4cc(Cl)ccc4C#N)C3)nn2)c1C (single isomer, unassigned) [Example 112, N-((cis)-3-(5-chloro-2-cyanophenyl)cyclobutyl)-1-((S or R)-1-(5-methoxy-4-methyl-6-((1R,5S)-2-oxo-3-azabicyclo[3.1.0]hexan-3-yl)pyridin-3-yl)ethyl)-1H-1,2,3-triazole-4-carboxamide] |
| 9.40 | Cc1ccc(C#N)c([C@H]2C[C@@H](NC(=O)c3cn(C(C)c4cnc(N5C[C@H]6C[C@H]6C5=O)c(C)c4C)nn3)C2)c1 (single isomer, unassigned) [Example 113, N-((cis)-3-(2-cyano-5-methylphenyl)cyclobutyl)-1-((R or S)-1-(4,5-dimethyl-6-((1R,5S)-2-oxo-3-azabicyclo[3.1.0]hexan-3-yl)pyridin-3-yl)ethyl)-1H-1,2,3-triazole-4-carboxamide] |
| 8.55 | COc1cc(C(C)n2cc(C(=O)N[C@H]3C[C@@H](c4cc(Cl)ccc4C#N)C3)cn2)cnc1N1C[C@H]2C[C@H]2C1=O (single isomer, unassigned) [Example 14, N-((cis)-3-(5-chloro-2-cyanophenyl)cyclobutyl)-1-((S or R)-1-(5-methoxy-6-((1R,5S)-2-0x0-3-azabicyclo[3.1.0]hexan-3-yl)pyridin-3-yl)ethyl)-1H-pyrazole-4-carboxamide] |
| 8.96 | CC(c1cnc(N2C[C@H]3C[C@H]3C2=O)c(F)c1)n1cc(C(=O)N[C@H]2C[C@@H](c3cc(Cl)ccc3C#N)C2)cn1 (single isomer, unassigned) [Example 21, N-((cis)-3-(5-chloro-2-cyanophenyl)cyclobutyl)-1-((R or S)-1-(5-fluoro-6-((1R,5S)-2-oxo-3-azabicyclo[3.1.0]hexan-3-yl)pyridin-3-yl)ethyl)-1H-pyrazole-4-carboxamide] |
| 6.89 | Cc1c(C(C)n2cc(C(=O)NC3CC(c4cccc(Cl)c4)C3O)nn2)cnc(N2C[C@H]3C[C@H]3C2=O)c1F (single isomer, unassigned) [Example 125, N-((1R,2R,3R or 1S,2S,3S)-3-(3-chlorophenyl)-2-hydroxycyclobutyl)-1-((S or R)-1-(5-fluoro-4-methyl-6-((1R,5S)-2-oxo-3-azabicyclo[3.1.0]hexan-3-yl)pyridin-3-yl)ethyl)-1H-1,2,3-triazole-4-carboxamide] |
| 8.19 | CC(c1cnc(N2C[C@H]3C[C@H]3C2=O)c(N)c1)n1cc(C(=O)N[C@H]2C[C@@H](c3cc(Cl)ccc3C#N)C2)nn1 (single isomer, unassigned) [Example 108, 1-((S or R)-1-(5-amino-6-((1R,5S)-2-oxo-3-azabicyclo[3.1.0]hexan-3-yl)pyridin-3-yl)ethyl)-N-((cis)-3-(5-chloro-2-cyanophenyl)cyclobutyl)-1H-1,2,3-triazole-4-carboxamide] |
| 9.40 | COCc1nn(C(C)c2cnc(N3C[C@H]4C[C@H]4C3=O)cc2C)cc1C(=O)N[C@H]1C[C@@H](c2cc(Cl)ccc2C#N)C1 (single isomer, unassigned) [Example 49, N-((cis)-3-(5-chloro-2-cyanophenyl)cyclobutyl)-3-(methoxymethyl)-1-((R or S)-1-(4-methyl-6-((1R,5S)-2-oxo-3-azabicyclo[3.1.0]hexan-3-yl)pyridin-3-yl)ethyl)-1H-pyrazole-4-carboxamide] |
| 8.60 | Cc1ccc(C#N)c([C@H]2C[C@@H](NC(=O)c3cn(C(C)c4cnc(N5C[C@H]6C[C@H]6C5=O)c(C)c4)nn3)C2)c1 (single isomer, unassigned) [Example 133, N-((cis)-3-(2-cyano-5-methylphenyl)cyclobutyl)-1-((R or S)-1-(5-methyl-6-((1R,5S)-2-oxo-3-azabicyclo[3.1.0]hexan-3-yl)pyridin-3-yl)ethyl)-1H-1,2,3-triazole-4-carboxamide] |
| 8.29 | Cc1cc(N2C[C@H]3C[C@H]3C2=O)cnc1C(C)n1cc(C(=O)N[C@H]2C[C@@H](c3cc(Cl)ccc3C#N)C2)cn1 (single isomer, unassigned) [Example 24, N-((cis)-3-(5-chloro-2-cyanophenyl)cyclobutyl)-1-((R or S)-1-(3-methyl-5-((1R,5S)-2-oxo-3-azabicyclo[3.1.0]hexan-3-yl)pyridin-2-yl)ethyl)-1H-pyrazole-4-carboxamide] |
| 8.17 | COc1nc(C(C)n2cc(C(=O)N[C@H]3C[C@@H](c4cc(Cl)ccc4C#N)C3)nn2)cnc1N1C[C@H]2C[C@H]2C1=O (single isomer, unassigned) [Example 121, N-((cis)-3-(5-chloro-2-cyanophenyl)cyclobutyl)-1-((R or S)-1-(6-methoxy-5-((1R,5S)-2-oxo-3-azabicyclo[3.1.0]hexan-3-yl)pyrazin-2-yl)ethyl)-1H-1,2,3-triazole-4-carboxamide] |
| 8.85 | Cc1ncc(C(C)n2cc(C(=O)N[C@H]3C[C@@H](c4cc(Cl)ccc4C#N)C3)nn2)cc1N1C[C@H]2C[C@H]2C1=O (single isomer, unassigned) [Example 139, N-((cis)-3-(5-chloro-2-cyanophenyl)cyclobutyl)-1-((R or S)-1-(6-methyl-5-((1R,5S)-2-oxo-3-azabicyclo[3.1.0]hexan-3-yl)pyridin-3-yl)ethyl)-1H-1,2,3-triazole-4-carboxamide] |
| 8.29 | Cc1cc(N2C[C@H]3C[C@H]3C2=O)ncc1C(C)n1cc(C(=O)N[C@H]2C[C@@H](c3cc(F)ccc3C#N)C2)cn1 (single isomer, unassigned) [Example 34, N-((cis)-3-(2-cyano-5-fluorophenyl)cyclobutyl)-1-((R or S)-1-(4-methyl-6-((1R,5S)-2-oxo-3-azabicyclo[3.1.0]hexan-3-yl)pyridin-3-yl)ethyl)-1H-pyrazole-4-carboxamide] |
| 6.01 | Cc1cc(N2C[C@H]3C[C@H]3C2=O)nnc1C(C)n1cc(C(=O)N[C@H]2C[C@@H](c3cc(Cl)ccc3C#N)C2)nn1 (single isomer, unassigned) [Example 117, N-((cis)-3-(5-chloro-2-cyanophenyl)cyclobutyl)-1-((R or S)-1-(4-methyl-6-((1R,5S)-2-oxo-3-azabicyclo[3.1.0]hexan-3-yl)pyridazin-3-yl)ethyl)-1H-1,2,3-triazole-4-carboxamide] |
| 7.02 | Cc1c([C@@H](C)n2cc(C(=O)N[C@H]3C[C@@H](c4cc(Cl)ccc4C#N)C3)nn2)nc(N2C[C@H]3C[C@H]3C2=O)n1C (single isomer, unassigned) [Example 161] |
| 8.72 | Cc1nc(N2C[C@H]3C[C@H]3C2=O)ncc1C(C)n1cc(C(=O)N[C@H]2C[C@@H](c3cc(Cl)ccc3C#N)C2)nn1 (single isomer, unassigned) [Example 81, N-((cis)-3-(5-chloro-2-cyanophenyl)cyclobutyl)-1-((S or R)-1-(4-methyl-2-((1R,5S)-2-oxo-3-azabicyclo[3.1.0]hexan-3-yl)pyrimidin-5-yl)ethyl)-1H-1,2,3-triazole-4-carboxamide] |
